# “Also recorded” adds a separate entry of the source. Where two headings read alike, the source gives them in different places.
# Key:
# [1] = test system: mouse adult neural stem cells; conditions: for cell protection and differentiation of NSC under amyloid-beta cytotoxicity: 10 μM amyloid-beta, second day of culture; for concentration at which differentiation-inducing effect starts: no amyloid-beta, day 2 of culture
# Description: NSC were isolated from the subventricular zone of week 8 mouse brain, treated with 20 ng/ml human basic fibroblast growth factor (bFGF) and 20 ng/ml human epidermal growth factor (EGF) in an IPM medium, and cultured as a suspension in 24-well plates for 7 days.
# Two days before the isolation of single cells, 6-well plates were prepared by treating the wells with 10 μg/ml poly-L-ornithine solution and incubating overnight at room temperature for coating. The next day, poly-L-ornithine solution was removed and the plates were washed 3 times with sterilized triple distilled water. […] The culture solution used is N2 culture medium (supplemented with 20 ng/ml bFGF and 20 ng/ml EGF). Right before seeding, the coating solution was suctioned out, and the single cells were uniformly seeded into the culture plate before the plate dried up. Cells were allowed to attach to the plates for about one minute, and after checking that cells were sufficiently attached, an additional 1.5 ml of culture medium (N2 culture medium with 20 ng/ml bFGF and 20 ng/ml EGF) was added to the cells and cultured in a 37° C. incubator for 24 hours.
# Wells not treated with amyloid-beta were left to use as negative controls.
# Gibco's (Waltham, Mass.) human Aβ (1-42) was purchased to use for the amyloid-beta (Aβ), and the following process was followed to create oligomers. […] Then, it was dried for 10 minutes in a speed Vac, after which DMSO (Sigma, cat #.D2650) was added to bring the concentration to 5 mM and then lightly vortexed at room temperature for 10 minutes. […] The solution was incubated at 4° C. for 24 hours and then added into the cultured cells.
# The NCSs were cultured with the daily addition of EGF, bFGF, amyloid-beta, and test materials for 4 days.
# [2] = molecular target: MEK1 (Homo sapiens (Human), UniProt Q02750); conditions: cited from earlier work
# MEK1, sequence (Q02750 whole entry, species assumed): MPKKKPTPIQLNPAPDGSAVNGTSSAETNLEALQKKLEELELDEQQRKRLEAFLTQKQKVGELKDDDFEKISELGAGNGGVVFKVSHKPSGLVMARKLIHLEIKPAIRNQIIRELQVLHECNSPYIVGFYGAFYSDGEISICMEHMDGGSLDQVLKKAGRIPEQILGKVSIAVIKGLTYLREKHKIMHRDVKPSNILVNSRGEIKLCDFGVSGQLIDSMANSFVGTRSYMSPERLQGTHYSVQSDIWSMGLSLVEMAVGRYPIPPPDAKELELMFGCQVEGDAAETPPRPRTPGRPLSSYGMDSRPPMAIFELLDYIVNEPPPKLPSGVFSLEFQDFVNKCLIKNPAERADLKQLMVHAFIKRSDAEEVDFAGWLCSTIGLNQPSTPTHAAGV
# [3] = test system: mouse embryonic neural stem cells; assay: Immunocytochemistry analysis (Tuj1/DAPI staining); type: cell-based; conditions: 4 days
# Description: Tuj1 (Neuron specific class III beta-tubulin) is a neuron specific marker protein, which was conjugated to rhodamine to show fluorescent red, while DAPI binds to the cell DNA and stains the cell nuclei fluorescent blue. […] The medium was removed and the cells were washed with PBS. After fixing with 10% formaldehyde (Sigma cat #. HT501128) at room temperature for 10 minutes, they were washed again with PBS. They were permeabilized with 0.2% Triton X-100 (Sigma, cat #. 93443) at room temperature for 15 minutes, washed with PBS, and incubated with 10% BSA (Sigma, cat #. A2153)+1% normal goat serum (Vector lab, Burlingame, Calif., cat #. S1000) at room temperature for 1 hour. […] The solution was removed, washed with PBS, and incubated at room temperature for 1 hour with the secondary antibody (rhodamine-conjugated antibody) diluted in 1% BSA+1% normal goat serum at a ratio of 1:200. Then, the cells were washed with PBS, incubated with 5 μg/ml DAPI (Sigma, cat #. D9542) for 5 minutes, washed with PBS again, and mounted on a slide glass for analysis with a fluorescent microscope.
# [4] = cited from earlier work
# [5] = test system: mouse embryonic neural stem cells; assay: Morphology analysis (phase-contrast) of NSC differentiation in mouse embryonic neural stem cells; type: cell-based; conditions: 1.0 μM and 10 μM; day 2 of culture
# Description: Neural stem cells were isolated from the brain of a day 14.5 mouse embryo, treated with 10 ng/ml human basic fibroblast growth factor (bFGF) (Peprotech, Princeton, NG, cat #0.100-18B) and 20 ng/ml human epidermal growth factor (EGF) (Peprotech, cat #. AF-100-15) in a N2 culture medium, and cultured in suspension in a 25 cm2 flask (Nunc, Pittsburgh, Pa.) for 4 days. Formation of neurospheres was observed after 2 days.
# In order to isolate single cells, 6-well plates were prepared the day before by treating the wells with 15 μg/ml poly-L-ornithine (Sigma, St. Louis, Mo., cat #.P2533) solution and incubating overnight at 37° C. for coating. The day of the single cell isolation, poly-L-ornithine solution was removed, the plates were washed with PBS three times, and 10 μg/ml fibronectin (Gibco, Waltham, Mass., cat #. 33016015) solution was added and incubated at 37° C. for 2 hours for coating.
# Various concentrations of the compound of [Formula 1]
# FIG. 10b is the analysis of Tuj1 mRNA expression in the cells of each group.
compound,measurement,setting,value
Cc1cc(C(=O)NOCCO)c(Nc2ccc(I)cc2F)n(C)c1=O [AZD8330],cell protection and differentiation of NSC under amyloid-beta cytotoxicity,[1]; compound 1 μM,provided cell protection and induced the differentiation of NSC
O=C(c1ccc(F)c(F)c1Nc1ccc(I)cc1F)N1CC(O)([C@@H]2CCCCN2)C1 [cobimetinib],differentiation of adult NSC (morphology),"[1]; 10 μM, regardless of whether amyloid-beta was added, second day",did not induce the differentiation of adult NSC; also recorded: does not induce the differentiation of mouse adult neural stem cells
same,selectivity toward MEK1 compared with MEK2,[2],≥ 100 ×
"O=C(NC[C@H](O)CO)c1ccncc1Nc1ccc(I)cc1F [AS703026, pimasertib]",cell protection and differentiation of NSC under amyloid-beta cytotoxicity,[1]; compound 10 μM,provided cell protection and induced the differentiation of NSC
same,cell toxicity,"[1]; trametinib 10 nM and 100 nM, AS703026 10 μM, 4 days",did not elicit cell toxicity
same,neuron differentiation (Tuj1 staining),[3]; 0.1 μM,no differentiation was observed
same,neuron differentiation (Tuj1 staining),[3]; 1.0 μM,"neuron differentiation occurs at this concentration, albeit only to a marginal extent"
same,expression of phosphorylated ERK in the mouse brain,[4],decrease the expression of phosphorylated ERK
same,crossing of the blood brain barrier,[4]; mouse,effectively cross the BBB
O=C(NOCC(O)CO)c1cc(Br)c(F)c(F)c1Nc1ccc(I)cc1F (stereo not drawn) [PD318088],cell protection and differentiation of NSC under amyloid-beta cytotoxicity,[1]; compound 1 μM,provided cell protection and induced the differentiation of NSC
CNS(=O)(=O)Nc1nccc(Cc2c(C)c3ccc(Oc4ncccn4)cc3oc2=O)c1F [RO5126766],concentration at which differentiation-inducing effect starts,[1],1.0 µM
O=C(NOC[C@H](O)CO)c1ccc(F)c(F)c1Nc1ccc(I)cc1F [PD0325901],differentiation-inducing effect (morphology),"[1]; 0.1 μM to 10 μM, day 2",excellent inducing effect
same,concentration at which differentiation-inducing effect starts,[1],0.1 µM
CC12CC3CC(C)(C1)CC(N)(C3)C2 [memantine],cell death of neural stem cells,"[1]; 5 μM and 10 μM, 4 days",death of neural stem cells
same,differentiation of NSC into neurons (morphology),"[1]; 5 μM and 10 μM, 4 days",not observed
N#CC(=C(/N)Sc1ccccc1N)/C(C#N)=C(\N)Sc1ccccc1N [U0126],cell proliferation,"[1]; 0.1 μM and 1.0 μM, day 2",inhibition of cell proliferation
same,differentiation-inducing effect (morphology),"[1]; 2.5 μM, day 2",did not show any clear differentiation-inducing effect
same,cell cytotoxicity,"[1]; 10 μM, day 2",cell cytotoxicity
same,NSC differentiation-inducing effect (morphology),"[1]; all concentrations tested, day 2",failed to show any NSC differentiation-inducing effect
O=C(NOCC1CC1)c1ccc(F)c(F)c1Nc1ccc(I)cc1Cl [PD184352],cell death,[5],all the cells died
BI847325,cell proliferation,"[1]; 1.0 nM and 10 nM, day 2",somewhat inhibited
same,differentiation-inducing effect (morphology),"[1]; 1.0 nM and 10 nM, day 2",not observed
same,differentiation-inducing effect (morphology),"[1]; 0.1 μM, day 2",only a weak differentiation-inducing effect
COc1cc(F)c(F)c(Nc2ccc(I)cc2F)c1NS(=O)(=O)C1(C[C@H](O)CO)CC1 [refametinib],cell protection and differentiation of NSC under amyloid-beta cytotoxicity,[1]; compound 1 μM,provided cell protection and induced the differentiation of NSC

# — patent US11701360B2, “Composition for inducing differentiation and protection of neural stem cells and method for inducing neuro-regeneration using the same composition” (GENUV Inc., priority 2017, dated 2023)
